These results are taken from US20080058272A1, “Nonamer Peptides for Cancer Treatment” (priority 2006, published 2008).

In the test the test system is PBMC of melanoma patients. The test is described as follows: Flow cytometry with HLA-A2/FAPα peptide multimers after in vitro stimulation. In kind it is cell-based, human. As to the method: The human HLA-A*0201-positive cell lines T2, a TAP-deficient T cell leukemia/B cell line hybrid and JY, a B-LCL were cultured in RPMI 1640 supplemented with 10% heat inactivated FCS. After informed consent peripheral blood lymphocytes (PBLs) were collected from HLA-A2-positive patients with advanced malignant melanoma. PBLs from HLA-A2-positive healthy individuals were used as controls. PBLs were isolated using Lymphoprep separation (Axis-Shield PoC AS, Oslo, Norway) according to the manufacturer's instructions and used directly or frozen in FCS with 10% DMSO. PBL were cultured in RPMI/10% human AB serum. Dendritic cells (DCs) were generated from PBMC by adherence on culture dishes at 37° C. for 60 minutes in RPMI enriched with 10% human AB serum. […]
After peptide-specific stimulation with FAPα peptides or with FAPα mRNA transfected DC, generated as described previously (Fassnacht et al. 2005) PBLs were stained with HLA-A2/FAPα peptide FITC-labeled multimers (a kind gift of Jorgen Scholler, Dako, Glostrup, Denmark) in PBS/0.1% BSA/FCS for 30 min in the dark, followed by staining with anti-CD8-PE (Dako, Glostrup, Denmark) for 30 min at 4° C. in the dark. Samples were analyzed on BD FACS Canto (Becton Dickinson, Heidelberg, Germany) using WinMDi or FCS Express V3.
Background: In flow cytometry, cells or beads pass a laser one at a time.

On to “GLFKCGIAV (listed as Homo sapiens) [FAPα^639-647]”, for which the “detection of HLA-A2/FAPα^639-647 specific T cells” value is recorded as “able to detect” (after in vitro stimulation with FAPα peptide-loaded dendritic cells) and “can be detected” (after stimulation with DCs transfected with FAPα mRNA).
